What was measured:
Type in all cases: cell-based
[1] = tested on: filaggrin production in HaCaT cells; experiment: Production of moisturizing factor filaggrin (FLG), ELISA; settings: 24 hours, cell lysate, FIG. 3 and FIG. 4
Method: (§1) HaCaT cells, which are skin keratinocytes, were provided by Cell Line Service GmbH (Germany). The cells were cultured in 5% CO2 incubator at 37° C. using Dulbecco's modified Eagle's medium (DMEM) containing 1% penicillin-streptomycin and 10% fetal bovine serum (FBS). Subculturing was performed with 2-3 day intervals.
HaCaT cells were seeded at 1.0×10^5 cells/well in a 24-well plate and cultured for 24 hours under the condition of 37° C. and 5% CO2. After the cultured cell medium was replaced with serum-free DMEM, a sample was treated at different concentrations and the cells were cultured for 24 hours. Afterwards, the cells of each test group were lysed and proteins were collected. Then, the amount of filaggrin produced in the culture medium extract was measured. The measurement of filaggrin production was performed using the Filaggrin ELISA kit (Cusabio Biotechnology Co., Ltd) according to the method provided by the manufacturer. The result of measuring the amount of filaggrin produced depending on the quercetin treatment is shown in FIG. 3, and the result of measuring the amount of filaggrin produced depending on the treatment with the extracts of the example and comparative example is shown in FIG. 4.

HaCaT cells = experiment: Evaluation of cytotoxicity, EZ-Cytox assay; settings: for HaCaT cell growth rate: versus untreated group 100%
Method: as §1
The EZ-cytox assay is a representative method for measuring cell viability that utilizes the principle that a water-soluble tetrazolium salt (WST) reacts with the dehydrogenase of living cells to produce an orange-colored, water-soluble formazan.
To examine cytotoxicity, HaCaT cells were seeded at 1.0×10^4 cells/well in a 96-well plate using DMEM medium containing 10% FBS, and cultured under the condition of 37° C. and 5% CO2 for 24 hours. After exchanging the medium with serum-free DMEM, the cultured cells were treated with a sample to be evaluated. After that, EZ-cytox was added to each well and reacted under the condition of 37° C. and 5% CO2 for 30 minutes, and then absorbance was measured at 450 nm using a microplate reader. The average absorbance value for each sample group was calculated, and this value was compared with the absorbance value of the control group to evaluate cell viability.

[2] = tested on: hyaluronic acid production in HaCaT cells; experiment: Production of moisturizing factor hyaluronic acid (HA), ELISA; settings: 24 hours, supernatant, FIG. 1 and FIG. 2
Method: HaCaT cells, which are skin keratinocytes, were provided by Cell Line Service GmbH (Germany). The cells were cultured in 5% CO2 incubator at 37° C. using Dulbecco's modified Eagle's medium (DMEM) containing 1% penicillin-streptomycin and 10% fetal bovine serum (FBS). Subculturing was performed with 2-3 day intervals. HaCaT cells were seeded at 1.0×10^5 cells/well in a 24-well plate and cultured for 24 hours under the condition of 37° C. and 5% CO2. After the cultured cell medium was replaced with serum-free DMEM, a sample was treated at different concentrations and the cells were cultured for 24 hours. Afterwards, the supernatant from each test group was collected and the amount of hyaluronic acid (HA) produced in the medium was measured. A control group was treated with N-acetylglucosamine at a concentration of 10 mM. The measurement of hyaluronic acid production was performed using the Hyaluronan Quantikine ELISA kit (R&D Systems) according to the method provided by the manufacturer.

SMILES: O=c1c(O)c(-c2ccc(O)c(O)c2)oc2cc(O)cc(O)c12 [Quercetin, quercetin]
- Production of filaggrin [1]: promoted the production of the moisturizing factor filaggrin
- HaCaT cell growth rate (HaCaT cells; 25 μM): 104.3 ± 1.3%
- HaCaT cell growth rate (HaCaT cells; 50 μM): 105.9 ± 1.0%
- HaCaT cell growth rate (HaCaT cells; 100 μM): 109.4 ± 2.1%
- HaCaT cell growth rate (HaCaT cells; 200 μM): 92.8 ± 2.8%
- Cytotoxicity for the skin keratinocytes (HaCaT cells; HaCaT cells, tested concentrations of Table 2): none of the example, comparative example or quercetin exhibited cytotoxicity
- Production of hyaluronic acid [2]: promoted the production of the moisturizing factor hyaluronic acid

— patent US20260216053A1, “COSMETIC COMPOSITION CONTAINING HOUTTUYNIA CORDATA FERMENTATION EXTRACT” (DAEBONG LS CO., LTD., priority 2022, published 2026)
